Reference: paper PMC3449313 (Peptides, 2012)

Experiments:
[1] = system: D. melanogaster pupal heart (white prepupae); format: in vivo, Drosophila melanogaster; conditions: 1 uM; without PI; relative to the effect of DMS; mean
[2] = system: D. melanogaster adult gut; assay: adult gut contraction; format: in vivo, Drosophila melanogaster; conditions: 0.1 nM; without PI; relative to the effect of DMS; mean

VFLRFamide [[6-10]DMS]
% Inhibition Pupal heart (without protease inhibitor) [1]: 103% | % Inhibition Adult gut (without protease inhibitor) [2]: 78%
